Results reported in patent US11453703B2, “Heterotandem bicyclic peptide complexes” (BicycleTX Limited, priority 2018, dated 2022).
Starred links: 1 amine or outer side, 2 acyl side, 3 side chain; linkers in the order of their positions; H or OH if unused. Positions of bridges follow the written chain, without caps; N, C: chain ends. Non-standard residues stand in square brackets, D forms with d. Residues, ends and D or L forms follow the SMILES beside them. Chains are numbered I, II in the order given. TATA = O=C(CC[*:1])N1CN(C(=O)CC[*:2])CN(C(=O)CC[*:3])C1; X2 = O=C(CCOCCOCCOCCOCCOCCn1cc(CCC(=O)[*:2])nn1)[*:1]; Hyp = O=C(O)[C@@H]1C[C@@H](O)CN1; hArg = N=C(N)NCCCC[C@H](N)C(=O)O; tBuAla = CC(C)(C)C[C@H](N)C(=O)O; Nle = CCCC[C@H](N)C(=O)O

Molecular target: CD137 (Homo sapiens, UniProt Q07011)
Sequence (Q07011 24-255): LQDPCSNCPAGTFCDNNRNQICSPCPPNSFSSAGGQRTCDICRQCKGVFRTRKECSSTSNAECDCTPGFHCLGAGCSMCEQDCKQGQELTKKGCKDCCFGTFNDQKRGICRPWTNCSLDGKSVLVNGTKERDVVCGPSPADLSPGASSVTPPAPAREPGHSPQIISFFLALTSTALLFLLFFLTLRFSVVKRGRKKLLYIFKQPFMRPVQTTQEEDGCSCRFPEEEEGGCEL
Assay: CD137 reporter assay, co-culture with EphA2 tumour cells
Assay type: cell-based
Set-up: host or cells: Jurkat reporter cells
Description: Culture medium referred to as R1 media is prepared by adding 1% FBS to RPMI-1640 (component of Promega kit CS196005). Serial dilutions of test articles in R1 are prepared in a sterile 96 well-plate. Use 25 μl per well of test articles or R1 (as a background control) to designated wells in white cell culture plate. Tumour cells* are harvested and resuspended at a concentration of 400,000 cells/mL in R1 media. Twenty five (25) μL/well tumour cells are used in white cell culture plate. Jurkat cells (Promega kit CS196005, 0.5 mL) are thawed in the water bath and then added to 5 ml pre-warmed R1 medium. Twenty five (25) μL/well Jurkat cells are used in white cell culture plate. Incubate the cells and test articles for 6h at 37° C., 5% CO2. At the end of 6 h, add 75 μl/well Bio-Glo™ (Promega) and incubate for 10 min before reading luminescence in a plate reader (Clariostar, BMG). The fold change relative to cells (Jurkat cells+Cell line used in co-culture) is calculated and plotted in GraphPad Prism as log(agonist) vs response to determine EC50 (nM) and Fold Induction over background (Max)

[1] = tumour target EphA2, co-culture with PC3, 6 h
[2] = tumour target EphA2, co-culture with SC-OV-3, 6 h

Structure (SMILES) | EC50 [1] [pM] | Fold Induction over Background [1] [fold] | Fold Induction over Background [2] [fold] | EC50 [2] [pM]
CCCC[C@@H]1NC(=O)[C@H](Cc2ccc(O)cc2)NC(=O)[C@@H]2CCCN2C(=O)[C@H](CC(=O)O)NC(=O)[C@H](C)NC(=O)[C@H](Cc2ccccc2)NC(=O)[C@@H]2CSCCC(=O)N3CN(CN(C3)C(=O)CCSC[C@@H](C(=O)N[C@@H](CNC(=O)Cn3cc(CCC(=O)NCCC(=O)N(C)CC(=O)N(C)CC(=O)N(C)CC(=O)N(C)CC(=O)N(C)CC(=O)N(C)CC(=O)N(C)CC(=O)N(C)CC(=O)N(C)CC(=O)N(C)CC(=O)N[C@@H](C)C(=O)N[C@@H](CCCCNC(=N)N)C(=O)N[C@@H](CC(=O)O)C(=O)N[C@H]4CSCCC(=O)N5CN6CN(C5)C(=O)CCSC[C@H](NC(=O)[C@H](CC(C)C)NC(=O)[C@@H]5CCCN5C(=O)[C@H](CC(N)=O)NC(=O)[C@H](C(C)C)NC(=O)[C@H](CC(C)C)NC(=O)[C@@H]5C[C@@H](O)CN5C4=O)C(=O)N[C@@H](CC(C)C)C(=O)N[C@@H](Cc4c[nH]cn4)C(=O)N4CCC[C@H]4C(=O)N[C@H](CC(=O)O)C(=O)N[C@@H](Cc4c[nH]c5ccccc45)C(=O)N[C@@H](CCCCNC(=N)N)C(=O)N[C@H](C(N)=O)CSCCC6=O)nn3)C(N)=O)NC1=O)C(=O)CCSC[C@H](NC(C)=O)C(=O)N[C@@H](CC(C)(C)C)C(=O)N1CCC[C@H]1C(=O)N[C@@H](CCC(=O)O)C(=O)N[C@H](C)C(=O)N1CCC[C@H]1C(=O)N[C@@H](Cc1ccc(O)cc1)C(=O)N2 [BCY10577] | 280 | 37 | – | –
CCCC[C@@H]1NC(=O)[C@H](Cc2ccc(O)cc2)NC(=O)[C@@H]2CCCN2C(=O)[C@H](CC(=O)O)NC(=O)[C@H](C)NC(=O)[C@H](Cc2ccccc2)NC(=O)[C@@H]2CSCCC(=O)N3CN(CN(C3)C(=O)CCSC[C@@H](C(=O)N[C@@H](CNC(=O)CCOCCOCCOCCOCCOCCOCCOCCOCCOCCOCCOCCOCCn3cc(CCC(=O)NCCC(=O)N(C)CC(=O)N(C)CC(=O)N(C)CC(=O)N(C)CC(=O)N(C)CC(=O)N(C)CC(=O)N(C)CC(=O)N(C)CC(=O)N(C)CC(=O)N(C)CC(=O)N[C@@H](C)C(=O)N[C@@H](CCCCNC(=N)N)C(=O)N[C@@H](CC(=O)O)C(=O)N[C@H]4CSCCC(=O)N5CN6CN(C5)C(=O)CCSC[C@H](NC(=O)[C@H](CC(C)C)NC(=O)[C@@H]5CCCN5C(=O)[C@H](CC(N)=O)NC(=O)[C@H](C(C)C)NC(=O)[C@H](CC(C)C)NC(=O)[C@@H]5C[C@@H](O)CN5C4=O)C(=O)N[C@@H](CC(C)C)C(=O)N[C@@H](Cc4c[nH]cn4)C(=O)N4CCC[C@H]4C(=O)N[C@H](CC(=O)O)C(=O)N[C@@H](Cc4c[nH]c5ccccc45)C(=O)N[C@@H](CCCCNC(=N)N)C(=O)N[C@H](C(N)=O)CSCCC6=O)nn3)C(N)=O)NC1=O)C(=O)CCSC[C@H](NC(C)=O)C(=O)N[C@@H](CC(C)(C)C)C(=O)N1CCC[C@H]1C(=O)N[C@@H](CCC(=O)O)C(=O)N[C@H](C)C(=O)N1CCC[C@H]1C(=O)N[C@@H](Cc1ccc(O)cc1)C(=O)N2 [BCY9173] | – | – | 21 | –
CCCC[C@@H]1NC(=O)[C@H](Cc2ccc(O)cc2)NC(=O)[C@@H]2CCCN2C(=O)[C@H](CC(=O)O)NC(=O)[C@H](C)NC(=O)[C@H](Cc2ccccc2)NC(=O)[C@@H]2CSCCC(=O)N3CN(CN(C3)C(=O)CCSC[C@@H](C(=O)N[C@@H](CNC(=O)CCOCCOCCOCCOCCOCCOCCOCCOCCOCCOCCOCCOCCOCCOCCOCCOCCOCCOCCOCCOCCOCCOCCOCCOCCOCCC(=O)NCCC(=O)N(C)CC(=O)N(C)CC(=O)N(C)CC(=O)N(C)CC(=O)N(C)CC(=O)N(C)CC(=O)N(C)CC(=O)N(C)CC(=O)N(C)CC(=O)N(C)CC(=O)N[C@@H](C)C(=O)N[C@@H](CCCCNC(=N)N)C(=O)N[C@@H](CC(=O)O)C(=O)N[C@H]3CSCCC(=O)N4CN5CN(C4)C(=O)CCSC[C@H](NC(=O)[C@H](CC(C)C)NC(=O)[C@@H]4CCCN4C(=O)[C@H](CC(N)=O)NC(=O)[C@H](C(C)C)NC(=O)[C@H](CC(C)C)NC(=O)[C@@H]4C[C@@H](O)CN4C3=O)C(=O)N[C@@H](CC(C)C)C(=O)N[C@@H](Cc3c[nH]cn3)C(=O)N3CCC[C@H]3C(=O)N[C@H](CC(=O)O)C(=O)N[C@@H](Cc3c[nH]c4ccccc34)C(=O)N[C@@H](CCCCNC(=N)N)C(=O)N[C@H](C(N)=O)CSCCC5=O)C(N)=O)NC1=O)C(=O)CCSC[C@H](NC(=O)[C@H](C)NC(C)=O)C(=O)N[C@@H]([C@@H](C)CC)C(=O)N[C@@H](CCC(=O)O)C(=O)N[C@@H](CCC(=O)O)C(=O)NCC(=O)N[C@@H](CCC(N)=O)C(=O)N[C@@H](Cc1ccc(O)cc1)C(=O)N2 [BCY9758] | – | – | 7 | 1200
CCCC[C@@H]1NC(=O)[C@H](Cc2ccc(O)cc2)NC(=O)[C@@H]2CCCN2C(=O)[C@H](CC(=O)O)NC(=O)[C@H](C)NC(=O)[C@H](Cc2ccccc2)NC(=O)[C@@H]2CSCCC(=O)N3CN(CN(C3)C(=O)CCSC[C@@H](C(=O)N[C@@H](CNC(=O)CCc3cn(CCOCCOCCOCCOCCOCCC(=O)N[C@@H](C)C(=O)N[C@@H](CCCCNC(=N)N)C(=O)N[C@@H](CC(=O)O)C(=O)N[C@H]4CSCCC(=O)N5CN6CN(C5)C(=O)CCSC[C@H](NC(=O)[C@H](CC(C)C)NC(=O)[C@@H]5CCCN5C(=O)[C@H](CC(N)=O)NC(=O)[C@H](C(C)C)NC(=O)[C@H](CC(C)C)NC(=O)[C@@H]5C[C@@H](O)CN5C4=O)C(=O)N[C@@H](CC(C)C)C(=O)N[C@@H](Cc4c[nH]cn4)C(=O)N4CCC[C@H]4C(=O)N[C@H](CC(=O)O)C(=O)N[C@@H](Cc4c[nH]c5ccccc45)C(=O)N[C@@H](CCCCNC(=N)N)C(=O)N[C@H](C(N)=O)CSCCC6=O)nn3)C(N)=O)NC1=O)C(=O)CCSC[C@H](NC(C)=O)C(=O)N[C@@H](CC(C)(C)C)C(=O)N1CCC[C@H]1C(=O)N[C@@H](CCC(=O)O)C(=O)N[C@H](C)C(=O)N1CCC[C@H]1C(=O)N[C@@H](Cc1ccc(O)cc1)C(=O)N2 [BCY10576] | 510 | 38 | – | –
CCCC[C@@H]1NC(=O)[C@H](Cc2ccc(O)cc2)NC(=O)[C@@H]2CCCN2C(=O)[C@H](CC(=O)O)NC(=O)[C@H](C)NC(=O)[C@H](Cc2ccccc2)NC(=O)[C@@H]2CSCCC(=O)N3CN(CN(C3)C(=O)CCSC[C@@H](C(=O)N[C@@H](C)C(N)=O)NC1=O)C(=O)CCSC[C@H](NC(C)=O)C(=O)N[C@@H](CC(C)(C)C)C(=O)N1CCC[C@H]1C(=O)N[C@@H](CCC(=O)O)C(=O)N[C@H](CCCCNC(=O)CCOCCOCCOCCOCCOCCOCCOCCOCCOCCOCCOCCOCCn1cc(CCC(=O)NCCC(=O)N(C)CC(=O)N(C)CC(=O)N(C)CC(=O)N(C)CC(=O)N(C)CC(=O)N(C)CC(=O)N(C)CC(=O)N(C)CC(=O)N(C)CC(=O)N(C)CC(=O)N[C@@H](C)C(=O)N[C@@H](CCCCNC(=N)N)C(=O)N[C@@H](CC(=O)O)C(=O)N[C@H]3CSCCC(=O)N4CN5CN(C4)C(=O)CCSC[C@H](NC(=O)[C@H](CC(C)C)NC(=O)[C@@H]4CCCN4C(=O)[C@H](CC(N)=O)NC(=O)[C@H](C(C)C)NC(=O)[C@H](CC(C)C)NC(=O)[C@@H]4C[C@@H](O)CN4C3=O)C(=O)N[C@@H](CC(C)C)C(=O)N[C@@H](Cc3c[nH]cn3)C(=O)N3CCC[C@H]3C(=O)N[C@H](CC(=O)O)C(=O)N[C@@H](Cc3c[nH]c4ccccc34)C(=O)N[C@@H](CCCCNC(=N)N)C(=O)N[C@H](C(N)=O)CSCCC5=O)nn1)C(=O)N1CCC[C@H]1C(=O)N[C@@H](Cc1ccc(O)cc1)C(=O)N2 [BCY10570] | 410 | 38 | – | –
CCCC[C@@H]1NC(=O)[C@H](Cc2ccc(O)cc2)NC(=O)[C@@H]2CCCN2C(=O)[C@H](CC(=O)O)NC(=O)[C@H](C)NC(=O)[C@H](Cc2ccccc2)NC(=O)[C@@H]2CSCCC(=O)N3CN(CN(C3)C(=O)CCSC[C@@H](C(=O)N[C@@H](C)C(N)=O)NC1=O)C(=O)CCSC[C@H](NC(C)=O)C(=O)N[C@@H](CC(C)(C)C)C(=O)N1CCC[C@H]1C(=O)N[C@@H](CCCCNC(=O)CCc1cn(CCOCCOCCOCCOCCOCCC(=O)N[C@@H](C)C(=O)N[C@@H](CCCCNC(=N)N)C(=O)N[C@@H](CC(=O)O)C(=O)N[C@H]3CSCCC(=O)N4CN5CN(C4)C(=O)CCSC[C@H](NC(=O)[C@H](CC(C)C)NC(=O)[C@@H]4CCCN4C(=O)[C@H](CC(N)=O)NC(=O)[C@H](C(C)C)NC(=O)[C@H](CC(C)C)NC(=O)[C@@H]4C[C@@H](O)CN4C3=O)C(=O)N[C@@H](CC(C)C)C(=O)N[C@@H](Cc3c[nH]cn3)C(=O)N3CCC[C@H]3C(=O)N[C@H](CC(=O)O)C(=O)N[C@@H](Cc3c[nH]c4ccccc34)C(=O)N[C@@H](CCCCNC(=N)N)C(=O)N[C@H](C(N)=O)CSCCC5=O)nn1)C(=O)N[C@H](C)C(=O)N1CCC[C@H]1C(=O)N[C@@H](Cc1ccc(O)cc1)C(=O)N2 [BCY10574] (I: A[hArg]DC[Hyp]LVNPLCLHP[dD]W[hArg]C-NH2 / II: Ac-C[tBuAla]PK[dA]PYCFADPY[Nle]CA-NH2; linker I:4-I:11-I:18, II:1-II:8-II:15 via TATA; linker I:N-II:4 via X2) | 1000 | 32 | – | –
